In assay [1] the target is T1, Nitric oxide synthase, inducible (Homo sapiens, UniProt P35228). The conditions noted are these: 10 uM.
Assay [2] deals with T2, Nitric oxide synthase 1 (Homo sapiens, UniProt P29475). The conditions noted are these: 10 uM.
For assay [3], the target named is T3, Nitric oxide synthase 3 (Homo sapiens, UniProt P29474).
T3 sequence (P29474 whole entry): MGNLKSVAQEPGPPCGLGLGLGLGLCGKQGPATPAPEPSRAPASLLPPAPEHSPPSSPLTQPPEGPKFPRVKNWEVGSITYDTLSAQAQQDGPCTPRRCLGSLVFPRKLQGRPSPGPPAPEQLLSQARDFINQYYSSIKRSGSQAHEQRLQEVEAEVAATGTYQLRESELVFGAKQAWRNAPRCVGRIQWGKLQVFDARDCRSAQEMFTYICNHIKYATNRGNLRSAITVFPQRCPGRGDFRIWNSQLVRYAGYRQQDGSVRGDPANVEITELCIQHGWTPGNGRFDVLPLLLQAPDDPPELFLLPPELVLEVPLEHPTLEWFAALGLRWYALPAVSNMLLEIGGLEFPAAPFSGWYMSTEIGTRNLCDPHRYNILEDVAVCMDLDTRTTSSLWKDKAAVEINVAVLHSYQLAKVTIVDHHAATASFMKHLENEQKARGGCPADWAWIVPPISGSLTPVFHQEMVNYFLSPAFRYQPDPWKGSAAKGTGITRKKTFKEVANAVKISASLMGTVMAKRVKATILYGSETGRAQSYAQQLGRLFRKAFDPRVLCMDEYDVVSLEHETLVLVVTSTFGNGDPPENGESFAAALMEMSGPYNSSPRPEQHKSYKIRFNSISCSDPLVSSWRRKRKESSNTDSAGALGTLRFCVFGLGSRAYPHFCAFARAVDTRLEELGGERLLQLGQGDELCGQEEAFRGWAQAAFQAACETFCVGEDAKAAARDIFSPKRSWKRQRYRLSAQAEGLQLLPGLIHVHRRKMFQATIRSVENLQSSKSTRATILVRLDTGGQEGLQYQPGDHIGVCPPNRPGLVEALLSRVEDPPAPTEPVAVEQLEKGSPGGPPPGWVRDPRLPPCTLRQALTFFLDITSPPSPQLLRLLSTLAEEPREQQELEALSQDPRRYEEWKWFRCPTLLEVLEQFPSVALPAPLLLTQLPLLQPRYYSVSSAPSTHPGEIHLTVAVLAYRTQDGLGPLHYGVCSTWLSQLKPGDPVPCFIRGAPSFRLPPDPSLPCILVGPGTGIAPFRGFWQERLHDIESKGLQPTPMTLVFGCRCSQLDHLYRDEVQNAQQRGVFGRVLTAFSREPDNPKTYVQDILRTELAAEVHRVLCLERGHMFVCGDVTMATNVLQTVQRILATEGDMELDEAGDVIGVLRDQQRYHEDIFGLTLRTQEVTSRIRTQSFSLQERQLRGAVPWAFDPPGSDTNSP
Put plainly: Percent inhibition against Endothelial nitric oxide synthase (eNOS) at 10 uM concentration.

Assay [4] addresses T3, Nitric oxide synthase 3. Put plainly: (§1) Inhibition concentration against Endothelial nitric oxide synthase (eNOS) at 10 uM concentration.
Assay [5] deals with T4, Nitric oxide synthase 3 (Homo sapiens) (UniProt P29474).
T4 sequence (whole entry): T3 sequence (P29474 whole entry)
Put plainly: Selectivity for endothelial nitric oxide synthase over inducible nitric oxide synthase.

The target of assay [6] is T1, Nitric oxide synthase, inducible. Put plainly: Inhibition concentration against Inducible nitric oxide synthase (iNOS) at 10 uM concentration.
The target in assay [7] is T2, Nitric oxide synthase 1. Put plainly: Inhibition concentration against Neuronal nitric oxide synthase (nNOS) at 10 uM concentration.
For assay [8], the target named is T2, Nitric oxide synthase 1. Put plainly: Selectivity for Neuronal nitric oxide synthase over inducible nitric oxide synthase.
The target of assay [9] is T4, Nitric oxide synthase 3 (Homo sapiens). Described as §1.

T1 sequence (P35228 whole entry): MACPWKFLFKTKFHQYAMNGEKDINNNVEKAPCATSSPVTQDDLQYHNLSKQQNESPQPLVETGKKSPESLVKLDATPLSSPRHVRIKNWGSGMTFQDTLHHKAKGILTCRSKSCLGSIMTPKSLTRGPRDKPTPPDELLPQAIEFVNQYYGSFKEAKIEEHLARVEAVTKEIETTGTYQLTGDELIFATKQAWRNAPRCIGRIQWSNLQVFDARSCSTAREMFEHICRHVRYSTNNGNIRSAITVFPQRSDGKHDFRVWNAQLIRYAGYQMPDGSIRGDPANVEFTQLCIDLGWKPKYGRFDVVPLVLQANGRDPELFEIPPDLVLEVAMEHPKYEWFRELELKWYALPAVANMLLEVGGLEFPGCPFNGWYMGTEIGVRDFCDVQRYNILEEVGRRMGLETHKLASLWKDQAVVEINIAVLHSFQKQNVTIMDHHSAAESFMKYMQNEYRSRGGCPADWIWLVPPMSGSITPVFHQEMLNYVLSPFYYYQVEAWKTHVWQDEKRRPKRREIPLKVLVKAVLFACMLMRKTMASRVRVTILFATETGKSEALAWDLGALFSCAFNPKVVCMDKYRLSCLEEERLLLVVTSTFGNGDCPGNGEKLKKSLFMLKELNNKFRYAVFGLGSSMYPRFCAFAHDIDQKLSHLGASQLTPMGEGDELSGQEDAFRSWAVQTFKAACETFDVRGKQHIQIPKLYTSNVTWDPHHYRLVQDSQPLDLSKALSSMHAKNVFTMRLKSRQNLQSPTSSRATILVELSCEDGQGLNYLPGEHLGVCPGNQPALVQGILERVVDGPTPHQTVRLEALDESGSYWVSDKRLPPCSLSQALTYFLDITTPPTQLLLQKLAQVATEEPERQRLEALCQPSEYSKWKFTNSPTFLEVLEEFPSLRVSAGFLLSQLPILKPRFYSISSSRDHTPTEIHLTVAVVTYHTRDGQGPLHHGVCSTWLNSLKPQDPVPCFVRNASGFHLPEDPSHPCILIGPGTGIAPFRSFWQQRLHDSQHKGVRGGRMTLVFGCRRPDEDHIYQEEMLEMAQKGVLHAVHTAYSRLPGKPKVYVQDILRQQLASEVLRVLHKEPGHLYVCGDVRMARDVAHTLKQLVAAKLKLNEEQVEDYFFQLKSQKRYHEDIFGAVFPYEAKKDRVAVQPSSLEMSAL
T2 sequence (P29475 whole entry): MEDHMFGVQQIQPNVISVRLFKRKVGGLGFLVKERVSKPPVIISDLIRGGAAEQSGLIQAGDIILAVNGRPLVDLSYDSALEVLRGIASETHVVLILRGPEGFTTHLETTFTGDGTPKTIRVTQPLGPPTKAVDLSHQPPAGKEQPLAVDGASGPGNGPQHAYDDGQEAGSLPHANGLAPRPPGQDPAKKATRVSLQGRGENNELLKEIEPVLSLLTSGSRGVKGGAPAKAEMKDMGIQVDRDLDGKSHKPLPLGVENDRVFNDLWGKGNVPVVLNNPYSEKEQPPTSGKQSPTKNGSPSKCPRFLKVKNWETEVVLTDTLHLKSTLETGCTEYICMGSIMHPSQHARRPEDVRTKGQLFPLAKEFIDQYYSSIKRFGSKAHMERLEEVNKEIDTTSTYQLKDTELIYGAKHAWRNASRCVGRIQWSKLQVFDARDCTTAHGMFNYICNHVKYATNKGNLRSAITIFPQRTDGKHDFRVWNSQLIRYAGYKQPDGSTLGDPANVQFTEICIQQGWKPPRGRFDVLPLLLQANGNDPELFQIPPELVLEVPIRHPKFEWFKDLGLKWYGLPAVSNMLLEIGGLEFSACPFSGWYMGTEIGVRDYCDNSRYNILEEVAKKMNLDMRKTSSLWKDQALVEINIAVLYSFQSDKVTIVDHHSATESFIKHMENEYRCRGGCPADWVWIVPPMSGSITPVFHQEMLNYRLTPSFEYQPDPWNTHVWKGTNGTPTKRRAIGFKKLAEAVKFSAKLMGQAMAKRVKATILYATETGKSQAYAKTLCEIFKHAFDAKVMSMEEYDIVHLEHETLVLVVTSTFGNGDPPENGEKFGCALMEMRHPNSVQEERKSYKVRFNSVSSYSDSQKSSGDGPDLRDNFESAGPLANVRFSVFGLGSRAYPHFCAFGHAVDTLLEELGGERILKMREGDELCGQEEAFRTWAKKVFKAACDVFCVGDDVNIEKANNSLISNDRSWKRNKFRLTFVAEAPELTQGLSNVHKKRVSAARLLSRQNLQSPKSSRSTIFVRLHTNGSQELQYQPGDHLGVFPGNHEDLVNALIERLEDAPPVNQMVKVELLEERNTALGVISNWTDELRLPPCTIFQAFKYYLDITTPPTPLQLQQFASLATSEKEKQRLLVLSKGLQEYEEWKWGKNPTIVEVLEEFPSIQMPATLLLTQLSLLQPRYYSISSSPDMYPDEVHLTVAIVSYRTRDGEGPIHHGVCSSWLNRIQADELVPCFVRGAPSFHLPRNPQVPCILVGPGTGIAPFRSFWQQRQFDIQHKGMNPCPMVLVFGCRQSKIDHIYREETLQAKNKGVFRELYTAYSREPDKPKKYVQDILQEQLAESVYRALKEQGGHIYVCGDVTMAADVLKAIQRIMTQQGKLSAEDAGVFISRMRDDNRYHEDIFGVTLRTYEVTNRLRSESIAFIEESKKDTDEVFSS

`CC(=N)NC[C@H](F)CC[C@H](N)C(=O)O`: the inhibition (usually the relative decrease from the control value, in per cent) is 4% in [1] and 0% on Nitric oxide synthase 1 [2]. Besides, the Inhibition (usually the share of the control response that was lost under treatment) at Nitric oxide synthase 3 [3] came out at 28.2%.

With `CC(=N)NC[C@@H](F)CC[C@@H](N)C(=O)O`, the figures for the IC50 (at Nitric oxide synthase 3 [4]; in [6]; on Nitric oxide synthase 1 [7]) were 374 µM, 47.8 µM and 311 µM, respectively. For the same compound, the Selectivity in assay [5] is 8; at Nitric oxide synthase 1 [8] it was 7.

Take `CC(=N)NCC(F)CCC(N)C(=O)O` (centres undefined): the 50% inhibitory concentration (IC50) (as a rule, the midpoint of a concentration-inhibition curve) against Nitric oxide synthase 3 [4] was 182 µM; in [6], 7.84 µM; at Nitric oxide synthase 1 [7], 70.4 µM. The Selectivity was determined as 23 in assay [5] and 9 at Nitric oxide synthase 1 [8].

Consider `CC(=N)NCC(F)(F)CCC(N)C(=O)O` (centres undefined), for which the results for the IC50 (on Nitric oxide synthase 3 [4]; in assay [6]; against Nitric oxide synthase 1 [7]) were 139 µM, 21.4 µM and 140 µM, respectively. Further, the Selectivity (in assay [5]; on Nitric oxide synthase 1 [8]) was 7 in each case.

For `CC(=N)NCCCC[C@H](N)C(=O)O` [L-NIL], the Selectivity was 28 in [5] and 7 on Nitric oxide synthase 1 [8]. The same compound had an IC50 in assay [6] of 4.9 µM.

Regarding `CC(=N)NC[C@@H](F)CC[C@H](N)C(=O)O`, the half-inhibitory concentration (IC50) was found to be 81 µM on Nitric oxide synthase 3 [4], 2.36 µM in assay [6] and 21.7 µM at Nitric oxide synthase 1 [7]. For the same compound, the Selectivity in assay [5] turned out to be 34; on Nitric oxide synthase 1 [8], 9.

With `CC(=N)NC[C@H](F)CC[C@@H](N)C(=O)O`, the inhibition in assay [9] was found to be 6.52%; in [1] it was 8.9%; against Nitric oxide synthase 1 [2], 18%.

As to `CC(=N)NCC(F)(F)CC[C@H](N)C(=O)O`, the half-maximal inhibitory concentration (IC50) at Nitric oxide synthase 3 [4] was 57.5 µM; in assay [6], 8.75 µM; at Nitric oxide synthase 1 [7], 33.8 µM. In addition, the Selectivity in assay [5] was determined as 7; on Nitric oxide synthase 1 [8], 4.

These data come from ChEMBL document CHEMBL1148413, “5-Fluorinated L-lysine analogues as selective induced nitric oxide synthase inhibitors” (J Med Chem, 2004).
